Where two headings read alike, the source gives them in different places.

The record followed here is patent publication US10821115B2, “Compounds that inhibit Mcl-1 protein” (priority 2017, dated 2020).

Experiment [1] deals with human multiple myeloma cell line, OPM-2. The experiment is described as follows: Cell viability assay (OPM-2 10 FBS), CellTiter-Glo. Format: cell-based. In short, it runs like this: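 Steps: plate cells at 3000/well in 10% FBS growth medium, add serially diluted compound, incubate 16 h at 37 °C with 5% CO2, add detection reagent and read luminescence after 25 min. A 4-parameter logistic model gives IC50.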

Experiment [2] concerns the target recombinant human Mcl-1 (residues 171-327) / Bim interaction (Homo sapiens (Human), UniProt Q07820). Briefly: biochemical. It counts as binding. The settings on record: read-out: Mcl-1 HTRF IC50.
Setting [3] is: Homo sapiens, OPM-2, 16 h, read-out: OPM-2 10% FBS IC50 IP, OPM-2 cells, 10% FBS, 16 h incubation.
[4] abbreviates: 0.1 nM Mcl-1(171-327), 0.05 nM biotin-Bim (51-76).
The mark [5] stands for this setting: Homo sapiens, OPM-2, 16 h, read-out: OPM-2 10% FBS IC50 IP, OPM-2 cells, 10% FBS, 16 h, CellTiter-Glo.
[6] abbreviates: TR-FRET, Mcl-1(171-327) / biotin-Bim (51-76).
[7] abbreviates: read-out: OPM-2 10% FBS IC50 IP, OPM-2 cells, 10% FBS, 16 h, CellTiter-Glo.

Chain of recombinant human Mcl-1 (residues 171-327) / Bim interaction (Q07820 171-327): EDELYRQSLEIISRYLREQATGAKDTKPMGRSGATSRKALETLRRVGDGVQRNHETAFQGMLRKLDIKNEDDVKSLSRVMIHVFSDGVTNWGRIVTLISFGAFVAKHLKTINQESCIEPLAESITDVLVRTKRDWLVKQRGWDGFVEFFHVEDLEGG

For `CO[C@@]1(CN2CCN(c3nccs3)CC2)/C=C/C[C@H](C)[C@@H](C)S(=O)(=O)NC(=O)c2ccc3c(c2)N(C[C@@H]2CC[C@H]21)C[C@@]1(CCCc2cc(Cl)ccc21)CO3` [Example 255, (1S,3′R,6′R,7′S,8′E,11′S,12′R)-6-chloro-7′-methoxy-11′,12′-dimethyl-7′-((4-(1,3-thiazol-2-yl)-1-piperazinyl)methyl)-3,4-dihydro-2H,15′H-spiro[naphthalene-1,22′-[20]oxa[13]thia[1,14]diazatetracyclo [14.7.2.0~3,6~.0~19,24~]pentacosa[8,16,18,24]tetraen]-15′-one 13′,13′-dioxide], the half-maximal inhibitory concentration (IC50) in experiment [1] (setting [3]) turned out to be 1480 nM; in experiment [2] (setting [4]) it was 1.74 nM.
For the compound `C[C@@H]1[C@@H](C)C/C=C/[C@@](O)(c2ncccn2)[C@@H]2CC[C@H]2CN2C[C@@]3(CCCc4cc(Cl)ccc43)COc3ccc(cc32)C(=O)NS1(=O)=O` [Example 100275, (1S,3′R,6′R,7′S,8′E,11′S,12′R)-6-chloro-7′-hydroxy-11′,12′-dimethyl-7′-(2-pyrimidinyl)-3,4-dihydro-2H,15′H-spiro[naphthalene-1,22′-[20]oxa[13]thia[1,14]diazatetracyclo [14.7.2.0~3,6~.0~19,24~]pentacosa[8,16,18,24]tetraen]-15′-one 13′,13′-dioxide], the values for the IC50 in experiment [1] (setting [5]) and in experiment [2] (setting [6]) were 309 nM and 0.113 nM, respectively.
Turning to `CCCO[C@]1(CN2CCN(C3COC3)CC2)/C=C/C[C@H](C)[C@@H](C)S(=O)(=O)NC(=O)c2ccc3c(c2)N(C[C@@H]2CC[C@H]21)C[C@@]1(CCCc2cc(Cl)ccc21)CO3` [Example 352, (1S,3′R,6′R,7′R,8′E,11′S,12′R)-6-chloro-11′,12′-dimethyl-7′-((4-(3-oxetanyl)-1-piperazinyl)methyl)-7′-propoxy-3,4-dihydro-2H,15′H-spiro[naphthalene-1,22-[20]oxa[13]thia[1,14]diazatetracyclo [14.7.2.0~3,6~.0~19,24~]pentacosa[8,16,18,24]tetraen]-15′-one 13′,13′-dioxide], the half-maximal inhibitory concentration (IC50) is 162 nM in experiment [1] (setting [3]) and 0.111 nM in experiment [2] (setting [4]).
In the case of `C[C@@H]1[C@@H](C)CCC[C@@](O)(CS(=O)(=O)N2CCN(C)CC2)[C@@H]2CC[C@H]2CN2C[C@@]3(CCCc4cc(Cl)ccc43)COc3ccc(cc32)C(=O)NS1(=O)=O` [Example 100138, (1S,3′R,6′R,7′S,11′S,12′R)-6-chloro-7′-hydroxy-11′,12′-dimethyl-7′-(((4-methyl-1-piperazinyl)sulfonyl)methyl)-3,4-dihydro-2H,15′H-spiro[naphthalene-1,22′-[20]oxa[13]thia[1,14]diazatetracyclo [14.7.2.0~3,6~.0~19,24~]pentacosa[16,18,24]trien]-15′-one 13′,13′-dioxide], the figures for the IC50 in experiment [1] (setting [7]) and in experiment [2] (setting [6]) were 342 nM and 0.549 nM, respectively.
`CO[C@@]1(Cc2nc(C)co2)/C=C/C[C@H](C)[C@@H](C)S(=O)(=O)NC(=O)c2ccc3c(c2)N(C[C@@H]2CC[C@H]21)C[C@@]1(CCCc2cc(Cl)ccc21)CO3` [Example 100527, (1S,3′R,6′R,7′S,8′E,11′S,12′R)-6-chloro-7′-methoxy-11′,12′-dimethyl-7′-((4-methyl-1,3-oxazol-2-yl)methyl)-3,4-dihydro-2H,15′H-spiro[naphthalene-1,22′-[20]oxa[13]thia[1,14]diazatetracyclo [14.7.2.0~3,6~.0~19,24~]pentacosa[8,16,18,24]tetraen]-15′-one 13′,13′-dioxide]: the IC50 in experiment [1] (setting [5]) was 3570 nM; in experiment [2] (setting [6]), 3.6 nM.
As to `C[C@@H]1[C@@H](C)C/C=C/[C@](O)(Cc2nccs2)[C@@H]2CC[C@H]2CN2C[C@@]3(CCCc4cc(Cl)ccc43)COc3ccc(cc32)C(=O)NS1(=O)=O` [Example 100245, (1S,3′R,6′R,7′R,8′E,11′S,12′R)-6-chloro-7′-hydroxy-11′,12′-dimethyl-7′-(1,3-thiazol-2-ylmethyl)-3,4-dihydro-2H,15′H-spiro[naphthalene-1,22′-[20]oxa[13]thia[1,14]diazatetracyclo [14.7.2.0~3,6~.0~19,24~]pentacosa[8,16,18,24]tetraen]-15′-one 13′,13′-dioxide], the concentration for half-maximal inhibition (IC50) is 1980 nM in experiment [1] (setting [7]) and 1.71 nM in experiment [2].
In the case of `CO[C@@]1(CN2CCN(c3cnccn3)CC2)/C=C/C[C@H](C)[C@@H](C)S(=O)(=O)NC(=O)c2ccc3c(c2)N(C[C@@H]2CC[C@H]21)C[C@@]1(CCCc2cc(Cl)ccc21)CO3` [Example 257, (1S,3′R,6′R,7′S,8′E,11′S,12′R)-6-chloro-7′-methoxy-11′,12′-dimethyl-7′-((4-(2-pyrazinyl)-1-piperazinyl)methyl)-3,4-dihydro-2H,15′H-spiro[naphthalene-1,22′-[20]oxa[13]thia[1,14]diazatetracyclo [14.7.2.0~3,6~.0~19,24~]pentacosa[8,16,18,24]tetraen]-15′-one 13′,13′-dioxide], the IC50 in experiment [1] (setting [3]) came to 981 nM; in experiment [2] (setting [4]), 0.403 nM.
Turning to `CO[C@@]1(C[C@@H](C)O)/C=C/C[C@H](C)[C@@H](C)S(=O)(=O)NC(=O)c2ccc3c(c2)N(C[C@@H]2CC[C@H]21)C[C@@]1(CCCc2cc(Cl)ccc21)CO3` [Example 100436, (1S,3′R,6′R,7′S,8′E,11′S,12′R)-6-chloro-7′-((2R)-2-hydroxypropyl)-7′-methoxy-11′,12′-dimethyl-3,4-dihydro-2H,15′H-spiro[naphthalene-1,22′-[20]oxa[13]thia[1,14]diazatetracyclo [14.7.2.0~3,6~.0~19,24~]pentacosa[8,16,18,24]tetraen]-15′-one 13′,13′-dioxide], the IC50 stood at 335 nM in experiment [1] (setting [7]) and 0.076 nM in experiment [2] (setting [6]).
Regarding `COCCN(C)C1CN(C[C@]2(OC)/C=C/C[C@H](C)[C@@H](C)S(=O)(=O)NC(=O)c3ccc4c(c3)N(C[C@@H]3CC[C@H]32)C[C@@]2(CCCc3cc(Cl)ccc32)CO4)C1` [Example 260, (1S,3′R,6′R,7′S,8′E,11′S,12′R)-6-chloro-7′-methoxy-7′-((3-((2-methoxyethyl)(methyl)amino)-1-azetidinyl)methyl)-11′,12′-dimethyl-3,4-dihydro-2H,15′H-spiro[naphthalene-1,22′-[20]oxa[13]thia[1,14]diazatetracyclo [14.7.2.0~3,6~.0~19,24~]pentacosa[8,16,18,24]tetraen]-15′-one 13′,13′-dioxide], the IC50 in experiment [1] (setting [3]) worked out at 103 nM; in experiment [2] (setting [4]) it was 0.083 nM.
As to `C[C@@H]1[C@@H](C)CCC[C@](C)([C@H]2OC[C@@H](N(C)C)CO2)[C@@H]2CC[C@H]2CN2C[C@@]3(CCCc4cc(Cl)ccc43)COc3ccc(cc32)C(=O)NS1(=O)=O` [Example 100328, (1S,3′R,6′R,7′S,11′S,12′R)-6-chloro-7′-(cis-5-(dimethylamino)-1,3-dioxan-2-yl)-7′,11′,12′-trimethyl-3,4-dihydro-2H,15′H-spiro[naphthalene-1,22′-[20]oxa[13]thia[1,14]diazatetracyclo [14.7.2.0~3,6~.0~19,24~]pentacosa[16,18,24]trien]-15′-one 13′,13′-dioxide], the concentration for half-maximal inhibition (IC50) came out at 180 nM in experiment [1] (setting [5]) and 0.261 nM in experiment [2] (setting [6]).
Take `C[C@@H]1[C@@H](C)C/C=C/[C@](O)(CCCO)[C@@H]2CC[C@H]2CN2C[C@@]3(CCCc4cc(Cl)ccc43)COc3ccc(cc32)C(=O)NS1(=O)=O` [Example 100156, (1S,3′R,6′R,7′R,8′E,11′S,12′R)-6-chloro-7′-hydroxy-7′-(3-hydroxypropyl)-11′,12′-dimethyl-3,4-dihydro-2H,15′H-spiro[naphthalene-1,22′-[20]oxa[13]thia[1,14]diazatetracyclo [14.7.2.0~3,6~.0~19,24~]pentacosa[8,16,18,24]tetraen]-15′-one 13′,13′-dioxide]: the 50% inhibitory concentration (IC50) was 568 nM in experiment [1] (setting [5]) and 0.41 nM in experiment [2] (setting [6]).
For `CO[C@@]1(CN2CCN(C(C)(C)C)CC2)/C=C/C[C@H](C)[C@@H](C)S(=O)(=O)NC(=O)c2ccc3c(c2)N(C[C@@H]2CC[C@H]21)C[C@@]1(CCCc2cc(Cl)ccc21)CO3` [Example 335, (1S,3′R,6′R,7′S,8′E,11′S,12′R)-7′-((4-tert-butyl-1-piperazinyl)methyl)-6-chloro-7′-methoxy-11′,12′-dimethyl-3,4-dihydro-2H,15′H-spiro[naphthalene-1,22′-[20]oxa[13]thia[1,14]diazatetracyclo [14.7.2.0~3,6~.0~19,24~]pentacosa[8,16,18,24]tetraen]-15′-one 13′,13′-dioxide], the IC50 in experiment [1] (setting [3]) is 133 nM; in experiment [2] (setting [4]), 0.148 nM.
With `C[C@@H]1[C@@H](C)C/C=C/[C@](O)(c2cccc(F)n2)[C@@H]2CC[C@H]2CN2C[C@@]3(CCCc4cc(Cl)ccc43)COc3ccc(cc32)C(=O)NS1(=O)=O` [Example 100331, (1S,3′R,6′R,7′R,8′E,11′S,12′R)-6-chloro-7′-(6-fluoro-2-pyridinyl)-7′-hydroxy-11′,12′-dimethyl-3,4-dihydro-2H,15′H-spiro[naphthalene-1,22′-[20]oxa[13]thia[1,14]diazatetracyclo [14.7.2.0~3,6~.0~19,24~]pentacosa[8,16,18,24]tetraen]-15′-one 13′,13′-dioxide], the concentration for half-maximal inhibition (IC50) in experiment [1] (setting [5]) worked out at 8260 nM; in experiment [2] (setting [6]) it was 0.192 nM.
For the compound `CCCN1CCN(C[C@@]2(OC)/C=C/C[C@H](C)[C@@H](C)S(=O)(=O)NC(=O)c3ccc4c(c3)N(C[C@@H]3CC[C@H]32)C[C@@]2(CCCc3cc(Cl)ccc32)CO4)CC1` [Example 97, (1S,3′R,6′R,7′R,8′E,11′S,12′R)-6-chloro-7′-methoxy-11′,12′-dimethyl-7′-((4-propyl-1-piperazinyl)methyl)-3,4-dihydro-2H,15′H-spiro[naphthalene-1,22′-[20]oxa[13]thia[1,14]diazatetracyclo [14.7.2.0~3,6~.0~19,24~]pentacosa[8,16,18,24]tetraen]-15′-one 13′,13′-dioxide], the values for the IC50 in experiment [1] (setting [3]) and in experiment [2] (setting [4]) were 228 nM and 0.299 nM, respectively.
